PubChem BioAssay AID256 (DTP/NCI, 2004)
Values joined by “and” are separate entries in the source; they are usually repeats but may differ in a detail not shown here. Equal entries are not always repeated. Toxic doses and inconclusive results are not listed.

System: CD2F1 mice, L1210 leukemia ip, survival T/C
Test: NCI In Vivo Anticancer Drug Screen. Data for tumor model L1210 Leukemia (intraperitoneal) in CD2F1 (CDF1) mice
Conditions: endpoint: mean survival time, higher = longer survival
Procedure: The antitumor activity of compounds was measured in mice bearing transplantable tumors. Survival or tumor size were measured and the results are expressed as the measurement made in the treated group (T) divided by the measurement made in the vehicle treated control group (C). The tumor model used in this assay is L1210 Leukemia (intraperitoneal) in CD2F1 (CDF1) mice

For `Nc1nncs1`, the T/C (dose: 1.0 mg/kg/injection, schedule: Q01DX005 (ip), vehicle: water) was 94 % of control, the T/C (dose: 2.0 mg/kg/injection, schedule: Q01DX005 (ip), vehicle: water) was 96 % of control and the T/C (dose: 4.0 mg/kg/injection, schedule: Q01DX005 (ip), vehicle: water) was 96 % of control. For the same compound, the T/C (dose: 8.0 mg/kg/injection, schedule: Q01DX005 (ip), vehicle: water) was 98 % of control, the T/C (dose: 8.0 mg/kg/injection, schedule: Q03HX008 (ip), vehicle: alkali diluted with saline) was 123 % of control and the T/C (dose: 8.0 mg/kg/injection, schedule: Q03HX016 (ip), vehicle: alkali diluted with saline) was 116 % of control. For the same compound, the T/C (dose: 8.0 mg/kg/injection, schedule: Q03HX024 (ip), vehicle: alkali diluted with saline) was 152 % of control, the T/C (dose: 8.0 mg/kg/injection, schedule: Q03HX024 (ip), vehicle: saline) was 153 % of control and the T/C (dose: 16.0 mg/kg/injection, schedule: Q01DX005 (ip), vehicle: water) was 108 % of control. For the same compound, the T/C (dose: 16.0 mg/kg/injection, schedule: Q01DX005 (iv), vehicle: alkali diluted with saline) was 110 % of control, the T/C (dose: 16.0 mg/kg/injection, schedule: Q01DX009 (oral), vehicle: other) was 108 % of control and the T/C (dose: 16.0 mg/kg/injection, schedule: Q03HX024 (ip), vehicle: alkali diluted with saline) was 194 % of control. The T/C (dose: 23.4 mg/kg/injection, schedule: Q04DX003 (ip), vehicle: water) was 103 % of control, the T/C (dose: 32.0 mg/kg/injection, schedule: Q01DX001 (iv), vehicle: alkali diluted with saline) was 107 % of control and the T/C (dose: 32.0 mg/kg/injection, schedule: Q01DX009 (ip), vehicle: other) was 123 % of control. For the same compound, the T/C (dose: 32.0 mg/kg/injection, schedule: Q01DX009 (ip), vehicle: saline with Tween-80) was 120 % of control, the T/C (dose: 32.0 mg/kg/injection, schedule: Q01DX009 (oral), vehicle: other) was 107 % of control and the T/C (dose: 32.0 mg/kg/injection, schedule: Q03HX008 (ip), vehicle: saline) was 120 % of control. For the same compound, the T/C (dose: 32.0 mg/kg/injection, schedule: Q03HX024 (ip), vehicle: saline) was 104 % of control, the T/C (dose: 32.0 mg/kg/injection, schedule: Q04DX003 (ip), vehicle: alkali diluted with saline) was 111 % of control and the T/C (dose: 32.0 mg/kg/injection, schedule: Q04DX003 (ip), vehicle: other) was 106 % of control. The T/C (dose: 39.0 mg/kg/injection, schedule: Q04DX003 (ip), vehicle: water) was 117 % of control and 105 % of control, the T/C (dose: 50.0 mg/kg/injection, schedule: Q04DX003 (ip), vehicle: water) was 106 % of control and the T/C (dose: 62.5 mg/kg/injection, schedule: Q04DX003 (ip), vehicle: water) was 103 % of control and 107 % of control. For the same compound, the T/C (dose: 64.0 mg/kg/injection, schedule: Q01DX001 (ip), vehicle: alkali diluted with saline) was 112 % of control, the T/C (dose: 64.0 mg/kg/injection, schedule: Q01DX001 (ip), vehicle: other) was 109 % of control and the T/C (dose: 64.0 mg/kg/injection, schedule: Q01DX001 (iv), vehicle: alkali diluted with saline) was 112 % of control. The T/C (dose: 64.0 mg/kg/injection, schedule: Q01DX001 (oral), vehicle: alkali diluted with saline) was 111 % of control, the T/C (dose: 64.0 mg/kg/injection, schedule: Q01DX001 (oral), vehicle: other) was 94 % of control and the T/C (dose: 64.0 mg/kg/injection, schedule: Q01DX001 (sc), vehicle: alkali diluted with saline) was 115 % of control. For the same compound, the T/C (dose: 64.0 mg/kg/injection, schedule: Q01DX009 (ip), vehicle: other) was 103 % of control, the T/C (dose: 64.0 mg/kg/injection, schedule: Q01DX009 (ip), vehicle: saline with Tween-80) was 104 % of control and 107 % of control and the T/C (dose: 64.0 mg/kg/injection, schedule: Q01DX009 (ip), vehicle: saline) was 109 % of control. For the same compound, the T/C (dose: 64.0 mg/kg/injection, schedule: Q01DX009 (oral), vehicle: other) was 86 % of control, the T/C (dose: 64.0 mg/kg/injection, schedule: Q03HX024 (ip), vehicle: alkali diluted with saline) was 97 % of control and the T/C (dose: 64.0 mg/kg/injection, schedule: Q04DX003 (ip), vehicle: other) was 123 % of control. The T/C (dose: 64.0 mg/kg/injection, schedule: Q08DX002 (ip), vehicle: alkali diluted with saline) was 114 % of control, the T/C (dose: 64.0 mg/kg/injection, schedule: Q08DX002 (ip), vehicle: other) was 105 % of control and the T/C (dose: 65.0 mg/kg/injection, schedule: Q04DX003 (ip), vehicle: water) was 123 % of control. The T/C (dose: 100.0 mg/kg/injection, schedule: Q04DX003 (ip), vehicle: water) was 119 % of control, the T/C (dose: 125.0 mg/kg/injection, schedule: Q04DX003 (ip), vehicle: water) was 119 % of control and the T/C (dose: 128.0 mg/kg/injection, schedule: Q01DX001 (ip), vehicle: other) was 119 % of control. The T/C (dose: 128.0 mg/kg/injection, schedule: Q01DX001 (iv), vehicle: alkali diluted with saline) was 119 % of control, the T/C (dose: 128.0 mg/kg/injection, schedule: Q01DX001 (oral), vehicle: other) was 104 % of control and the T/C (dose: 128.0 mg/kg/injection, schedule: Q01DX001 (sc), vehicle: alkali diluted with saline) was 120 % of control. The T/C (dose: 128.0 mg/kg/injection, schedule: Q01DX009 (sc), vehicle: alkali diluted with saline) was 96 % of control, the T/C (dose: 128.0 mg/kg/injection, schedule: Q08DX002 (ip), vehicle: alkali diluted with saline) was 124 % of control and the T/C (dose: 128.0 mg/kg/injection, schedule: Q08DX002 (ip), vehicle: other) was 116 % of control. The T/C (dose: 180.0 mg/kg/injection, schedule: Q04DX003 (ip), vehicle: water) was 159 % of control, the T/C (dose: 200.0 mg/kg/injection, schedule: Q04DX003 (ip), vehicle: water) was 124 % of control and the T/C (dose: 250.0 mg/kg/injection, schedule: Q04DX003 (ip), vehicle: water) was 156 % of control. For the same compound, the T/C (dose: 256.0 mg/kg/injection, schedule: Q01DX001 (ip), vehicle: other) was 118 % of control, the T/C (dose: 256.0 mg/kg/injection, schedule: Q01DX001 (oral), vehicle: other) was 108 % of control and the T/C (dose: 256.0 mg/kg/injection, schedule: Q01DX005 (iv), vehicle: alkali diluted with saline) was 150 % of control. For the same compound, the T/C (dose: 256.0 mg/kg/injection, schedule: Q01DX009 (ip), vehicle: alkali diluted with saline) was 87 % of control, the T/C (dose: 256.0 mg/kg/injection, schedule: Q04DX003 (ip), vehicle: alkali diluted with saline) was 163 % of control and the T/C (dose: 256.0 mg/kg/injection, schedule: Q04DX003 (ip), vehicle: other) was 157 % of control. For the same compound, the T/C (dose: 300.0 mg/kg/injection, schedule: Q04DX003 (ip), vehicle: water) was 161 % of control and 176 % of control, the T/C (dose: 512.0 mg/kg/injection, schedule: Q01DX001 (oral), vehicle: other) was 111 % of control and the T/C (dose: 512.0 mg/kg/injection, schedule: Q04DX003 (ip), vehicle: alkali diluted with saline) was 182 % of control. For the same compound, the T/C (dose: 512.0 mg/kg/injection, schedule: Q04DX003 (ip), vehicle: other) was 168 % of control, the T/C (dose: 512.0 mg/kg/injection, schedule: Q08DX002 (ip), vehicle: alkali diluted with saline) was 151 % of control and the T/C (dose: 833.0 mg/kg/injection, schedule: Q04DX003 (ip), vehicle: water) was 182 % of control. For the same compound, the T/C (dose: 1024.0 mg/kg/injection, schedule: Q01DX001 (ip), vehicle: other) was 122 % of control, the T/C (dose: 1024.0 mg/kg/injection, schedule: Q01DX001 (oral), vehicle: alkali diluted with saline) was 117 % of control and the T/C (dose: 1024.0 mg/kg/injection, schedule: Q01DX001 (oral), vehicle: other) was 109 % of control. For the same compound, the T/C (dose: 1024.0 mg/kg/injection, schedule: Q08DX002 (ip), vehicle: alkali diluted with saline) was 160 % of control.

`CCOC(CNCc1ccc(OC)cc1)OCC` was tested, and the T/C (dose: 100.0 mg/kg/injection, schedule: Q01DX001 (ip), vehicle: saline) was 104 % of control and the T/C (dose: 200.0 mg/kg/injection, schedule: Q01DX001 (ip), vehicle: saline) was 111 % of control.

`CCC1CCCCN1C` (centres undefined) was tested, and the T/C (dose: 100.0 mg/kg/injection, schedule: Q04DX003 (ip), vehicle: saline with Tween-80) was 90 % of control.

In the case of `CCOC(=O)NC(C#N)=C(Cl)Cl`, the T/C (dose: 100.0 mg/kg/injection, schedule: Q04DX002 (ip), vehicle: saline with Tween-80) is reported as 114 % of control, the T/C (dose: 200.0 mg/kg/injection, schedule: Q04DX002 (ip), vehicle: saline with Tween-80) is reported as 88 % of control and the T/C (dose: 400.0 mg/kg/injection, schedule: Q04DX002 (ip), vehicle: saline with Tween-80) is reported as 100 % of control.

`COc1ccc(N=NNc2ccc(OC)cc2)cc1` was tested, and the T/C (dose: 6.25 mg/kg/injection, schedule: Q01DX009 (ip), vehicle: saline with Tween-80) was 100 % of control, the T/C (dose: 12.5 mg/kg/injection, schedule: Q01DX009 (ip), vehicle: saline with Tween-80) was 96 % of control and the T/C (dose: 25.0 mg/kg/injection, schedule: Q01DX009 (ip), vehicle: saline with Tween-80) was 102 % of control.

`Nc1ncnc2nc(-c3ccc(OCc4ccccc4)cc3)[nH]c12` was tested, and the T/C (dose: 100.0 mg/kg/injection, schedule: Q01DX001 (ip), vehicle: Klucel (hydroxypropylcellulose) (HPC)) was 97 % of control, the T/C (dose: 200.0 mg/kg/injection, schedule: Q01DX001 (ip), vehicle: Klucel (hydroxypropylcellulose) (HPC)) was 89 % of control and the T/C (dose: 400.0 mg/kg/injection, schedule: Q01DX001 (ip), vehicle: Klucel (hydroxypropylcellulose) (HPC)) was 95 % of control.
